This note sets out measurements from patent US20090170838A1, “Bicycloheteroaryl compounds as P2X7 modulators and uses thereof” (Renovis, Inc., priority 2005, published 2009).

Molecules are shown by their SMILES.

The target in the first assay is T1, P2X7 receptor (Homo sapiens, UniProt Q99572).
T1 construct: host or cells: THP-1 cells differentiated with LPS and IFN-γ
T1 sequence (Q99572 1-595): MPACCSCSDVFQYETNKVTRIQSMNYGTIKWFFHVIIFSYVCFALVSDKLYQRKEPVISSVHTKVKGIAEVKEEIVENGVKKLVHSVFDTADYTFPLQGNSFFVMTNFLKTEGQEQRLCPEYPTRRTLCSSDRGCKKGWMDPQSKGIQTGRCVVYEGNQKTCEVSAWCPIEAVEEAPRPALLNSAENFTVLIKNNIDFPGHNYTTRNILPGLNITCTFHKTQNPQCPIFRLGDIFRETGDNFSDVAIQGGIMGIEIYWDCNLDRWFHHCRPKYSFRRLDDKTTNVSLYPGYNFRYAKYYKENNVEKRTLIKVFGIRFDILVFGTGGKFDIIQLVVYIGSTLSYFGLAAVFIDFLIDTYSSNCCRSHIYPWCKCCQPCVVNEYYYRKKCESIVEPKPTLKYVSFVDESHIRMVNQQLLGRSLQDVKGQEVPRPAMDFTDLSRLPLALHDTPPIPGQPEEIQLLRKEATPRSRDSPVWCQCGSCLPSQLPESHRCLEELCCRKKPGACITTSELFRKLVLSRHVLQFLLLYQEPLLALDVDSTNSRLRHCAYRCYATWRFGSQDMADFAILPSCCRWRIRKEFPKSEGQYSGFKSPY
Description: IL-1β release assay (BzATP-stimulated, LPS/IFN-γ differentiated THP-1 cells, ELISA). The class given is cell-based. The following applies: at 0.1 μM (asterisk symbols). The method, then:
THP-1 cells (ATCC Cat # 285-IF-100) are plated in 96 well plates at a concentration of 200,000 cells per well and allowed to differentiate in RPMI-1640 media (ATCC Cat # 30-2001) containing 10% FBS, 100 IU/mL penicillin, 100 ug/mL streptomycin, 100 ng/mL LPS and 100 ng/mL IFN-γ for 16 hours. Following differentiation, the cells are treated for an additional 2 hours in RPMI-1640 media containing 100 IU/mL penicillin, 100 ug/mL streptomycin and fresh LPS at 100 ng/mL. The cells are then pretreated for 30 minutes with the compound of interest at the appropriate concentration in RPMI media containing 100 IU/mL penicillin, 100 ug/mL streptomycin. Following the pretreatment 2′,3′-O-(4-benzoylbenzoyl)-adenosine 5′-triphosphate (Sigma Aldrich Cat# B6396) is added to a final concentration of 250 uM and the cells incubated for an additional 45 minutes. 30 uL of cell supernatant is then collected and […] levels determined via ELISA (R&D systems Cat. # HSLB50) according to manufacturer's recommendations using the Tecan Safire plate reader. Background adjusted IL-1β levels of drug treated and non-treated cells are used to calculate the percent inhibition.
In general terms: An ELISA detects its analyte on a solid surface through an enzyme-linked reagent.
As to `O=C(CC12CC3CC(CC(C3)C1)C2)Nc1cccc2c(=O)n(C[C@@H]3CCCN3)ccc12` [Compound 810], the inhibition at 0.1 µM was at least 75%. On the same count and under the same terms, the figure for `O=C(CC12CC3CC(CC(C3)C1)C2)Nc1cccc2c(=O)n(CCN3CCSCC3)ccc12` [Compound 786] is at least 75%; for `O=C(CC12CC3CC(CC(C3)C1)C2)Nc1cccc2c1CCN(CCCn1ccnc1)C2=O` [Compound 836] it is at least 75%; for `O=C(CC12CC3CC(CC(C3)C1)C2)Nc1cccc2c(=O)n(Cc3ccoc3)ccc12` [Compound 873] it is at least 75%. For the compound `CC1CNC(CN2CCc3c(NC(=O)CC45CC6CC(CC(C6)C4)C5)cccc3C2=O)CN1` (centres unmarked) [Compound 806], the inhibition at 0.1 µM is at least 75%. Same read-out and setting: for `O=C(CC12CC3CC(CC(C3)C1)C2)Nc1cccc2c1CCN(CCc1c[nH]cn1)C2=O` [Compound 802] the value was at least 75%; for `CCN1CCCC1CN1CCc2c(NC(=O)CC34CC5CC(CC(C5)C3)C4)cccc2C1=O` (centres unmarked) [Compound 834], at least 75%.

In the case of `CC12CC3CC(C)(C1)CC(CC(=O)Nc1cccc4c1CCN(CCN1CCOCC1)C4=O)(C3)C2` [Compound 815], the inhibition at 0.1 µM is 50 to 75%. Still for that read-out and setting: for `CC12CC3CC(C)(C1)CC(CC(=O)Nc1cccc4c1CCN(Cc1ccccc1F)C4=O)(C3)C2` [Compound 839] the value was 50 to 75%; for `CC12CC3CC(C)(C1)CC(CC(=O)Nc1cccc4c(=O)n(Cc5ccc(C(F)(F)F)cc5)ccc14)(C3)C2` [Compound 753], at least 75%; for `CC(C)(CN1CCOCC1)N1CCc2c(NC(=O)CC34CC5CC(CC(C5)C3)C4)cccc2C1=O` [Compound 843], at least 75%.

`CN1CCC(CN2CCc3c(NC(=O)CC45CC6CC(CC(C6)C4)C5)cccc3C2=O)CC1` [Compound 794]: the inhibition at 0.1 µM was at least 75%. On the same count and under the same terms, for `CC(c1ccccc1)N1CCc2c(NC(=O)CC34CC5CC(C)(CC(C)(C5)C3)C4)cccc2C1=O` (centres unmarked) [Compound 838] the value was at least 75%; for `CC(c1ccncc1)n1ccc2c(NC(=O)CC34CC5CC(CC(C5)C3)C4)cccc2c1=O` (centres unmarked) [Compound 859], at least 75%. Still for that read-out and setting: the figure for `CC(C)(C)OC(=O)N1CCC[C@@H]1Cn1ccc2c(NC(=O)CC34CC5CC(CC(C5)C3)C4)cccc2c1=O` [Compound 774] is at least 75%. Same read-out and setting: the figure for `CC12CC3CC(C)(C1)CC(CC(=O)Nc1cccc4c(=O)n(Cc5ccncc5)ccc14)(C3)C2` [Compound 755] is at least 75%. `CC12CC3CC(C)(C1)CC(CC(=O)Nc1cccc4c1CCN(CC1CCOCC1)C4=O)(C3)C2` [Compound 813]: the inhibition at 0.1 µM was at least 75%.

With `O=C(Nc1cccc2c(=O)n(Cc3ccccc3)ccc12)C12CC3CC(CC(F)(C3)C1)C2` [Compound 816, 3-Fluoro-Adamantan-1-yl-N-(2-benzyl-1-oxo-1,2-dihydro-isoquinolin-5-yl)-formamide], the inhibition at 0.1 µM lay within 25 to 50%.

Consider `O=C(CC12CC3CC(CC(C3)C1)C2)Nc1cccc2c(=O)n(CCCN3CCCC3)ccc12` [Compound 789], for which the inhibition at 0.1 µM is at least 75%. On the same count and under the same terms, for `O=C(CC12CC3CC(CC(C3)C1)C2)Nc1cccc2c(=O)n(Cc3ccccc3Cl)ccc12` [Compound 793] the value was at least 75%. Same read-out and setting: the figure for `O=C(CC12CC3CC(CC(C3)C1)C2)Nc1cccc2c1CCN(CC1COc3ccccc3O1)C2=O` (centres unmarked) [Compound 872] is at least 75%. On the same count and under the same terms, for `CC12CC3CC(C)(C1)CC(CC(=O)Nc1cccc4c(=O)n(Cc5ccc(F)c(F)c5)ccc14)(C3)C2` [Compound 819] the value was 50 to 75%; for `O=C(CC12CC3CC(CC(C3)C1)C2)Nc1cccc2c1CCN(Cc1ccccc1F)C2=O` [Compound 790], at least 75%; for `CN1CCCC1CCN1CCc2c(NC(=O)CC34CC5CC(CC(C5)C3)C4)cccc2C1=O` (centres unmarked) [Compound 879], at least 75%. `NC(=O)CCn1ccc2c(NC(=O)CC34CC5CC(CC(C5)C3)C4)cccc2c1=O` [Compound 829]: the inhibition at 0.1 µM was at least 75%.

As for `CC12CC3CC(C)(C1)CC(CC(=O)Nc1cccc4c(=O)n(CC5COc6ccccc6O5)ccc14)(C3)C2` (centres unmarked) [Compound 766], the inhibition at 0.1 µM is 50 to 75%.

`O=C(CC12CC3CC(CC(C3)C1)C2)Nc1cccc2c1CCN(CC1CCOCC1)C2=O` [Compound 833] registered an inhibition at 0.1 µM of at least 75%. `NC(=O)[C@H](Cc1c[nH]cn1)n1ccc2c(NC(=O)CC34CC5CC(CC(C5)C3)C4)cccc2c1=O` [Compound 882] gave an inhibition at 0.1 µM of at least 75%. Regarding `CC12CC3CC(C)(C1)CC(CC(=O)Nc1cccc4c(=O)n(CC5COCCO5)ccc14)(C3)C2` (centres unmarked) [Compound 762], the inhibition at 0.1 µM is 50 to 75%. On the same count and under the same terms, for `O=C(CC12CC3CC(CC(C3)C1)C2)Nc1cccc2c1CCN(CCCN1CCCC1)C2=O` [Compound 880] the value was at least 75%. On the same count and under the same terms, for `CC(C)(C)OC(=O)N1CCCC1CN1CCc2c(NC(=O)CC34CC5CC(CC(C5)C3)C4)cccc2C1=O` (centres unmarked) [Compound 857] the value was at least 75%.

The same assay, now with this note: at 0.3 μM (plus symbols).
Turning to `C[C@H](CO)n1ccc2c(NC(=O)CC34CC5CC(CC(C5)C3)C4)cccc2c1=O` [Compound 897], the inhibition at 0.3 µM is at least 75%.

Take `O=C(CC12CC3CC(CC(C3)C1)C2)Nc1cccc2c(=O)n(Cc3ccc(F)cc3F)ccc12` [Compound 705]: the inhibition at 0.3 µM is at least 75%. The same measure, in the same setting: for `C=Cn1ccc2c(N(C)C(=O)CC34CC5CC(CC(C5)C3)C4)cccc2c1=O` [Compound 891] the value was 50 to 75%; for `Cc1cc(Cn2ccc3c(NC(=O)CC45CC6CC(C)(CC(C)(C6)C4)C5)cccc3c2=O)nn1C` [Compound 745], at least 75%. As to `O=C(CC12CC3CC(CC(C3)C1)C2)Nc1cccc2c(=O)n(Cc3c(F)cccc3F)ccc12` [Compound 733], the inhibition at 0.3 µM is at least 75%. On the same count and under the same terms, for `CC(C)Cn1ccc2c(N(C)C(=O)CC34CC5CC(CC(C5)C3)C4)cccc2c1=O` [Compound 893] the value was 25 to 50%; for `Cc1ccccc1Cn1ccc2c(NC(=O)CC34CC5CC(CC(C5)C3)C4)cccc2c1=O` [Compound 723], at least 75%; for `CC(C)(C)OC(=O)N1CCC(Cn2ccc3c(NC(=O)CC45CC6CC(CC(C6)C4)C5)cccc3c2=O)CC1` [Compound 748], at least 75%. For the compound `CC12CC3CC(C)(C1)CC(CC(=O)Nc1cccc4c(=O)n(CCCN5CCOCC5)ccc14)(C3)C2` [Compound 892], the inhibition at 0.3 µM was at least 75%. With `Cc1cnc(Cn2ccc3c(NC(=O)CC45CC6CC(CC(C6)C4)C5)cccc3c2=O)cn1` [Compound 710], the inhibition at 0.3 µM was at least 75%. The same measure, in the same setting: the figure for `O=C(CC12CC3CC(CC(C3)C1)C2)Nc1cccc2c(=O)n(Cc3ccccc3)ccc12` [Compound 701, 2-adamantan-1-yl-N-(2-benzyl-1-oxo-1,2-dihydro-isoquinolin-5-yl)-acetamide] is at least 75%; for `O=C(CC12CC3CC(CC(C3)C1)C2)Nc1cccc2c1CCN(Cc1ccc(F)cc1)C2=O` [Compound 704] it is at least 75%; for `O=C(CC12CC3CC(CC(C3)C1)C2)Nc1cccc2c(=O)n(Cc3ccc(F)cc3)ccc12` [Compound 703, 2-Adamantan-1-yl-N-[2-(4-fluoro-benzyl)-1-oxo-1,2-dihydro-isoquinolin-5-yl]-acetamide] it is at least 75%.

As for `CN1CCC(Cn2ccc3c(NC(=O)CC45CC6CC(C)(CC(C)(C6)C4)C5)cccc3c2=O)CC1` [Compound 746], the inhibition at 0.3 µM was at least 75%. Still for that read-out and setting: the figure for `O=C(CC12CC3CC(CC(C3)C1)C2)Nc1cccc2c(=O)n(CC3CCNCC3)ccc12` [Compound 749] is at least 75%. Still for that read-out and setting: for `O=C(CC12CC3CC(CC(C3)C1)C2)Nc1cccc2c1CCN(Cc1ccc(F)cc1F)C2=O` [Compound 725, 2-Adamantan-1-yl-N-[2-(2,4-difluoro-benzyl)-1-oxo-1,2,3,4-tetrahydro-isoquinolin-5-yl]-acetamide] the value was at least 75%.

As for `O=C(CC12CC3CC(CC(C3)C1)C2)Nc1cccc2c(=O)n(CC3COc4ccccc4O3)ccc12` (centres unmarked) [Compound 734], the inhibition at 0.3 µM was at least 75%. Regarding `O=C(CC12CC3CC(CC(C3)C1)C2)Nc1cccc2c(=O)n(C[C@@H]3CCCO3)ccc12` [Compound 739], the inhibition at 0.3 µM is at least 75%.

With `Cc1cc(Cn2ccc3c(NC(=O)CC45CC6CC(CC(C6)C4)C5)cccc3c2=O)nn1C` [Compound 719], the inhibition at 0.3 µM was in the range of 25 to 50%.

Broadly, the inhibition is the percentage by which the read-out fell short of the control.
